Source: PubChem BioAssay (NCI)
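48-hour exposure; five concentrations; linearly interpolated endpoints. GI50: concentration for 50% inhibition of growth. The concentration for full growth arrest is given as TGI.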

Assays:
Assay in all cases: NCI anticancer screen, dose series, 48 h
[1] = system: MOLT-4 leukemia
[2] = system: A549 NSCLC
[3] = system: OVCAR-8 ovarian
[4] = system: SR leukemia
[5] = system: EKVX NSCLC
[6] = system: NCI/ADR-RES ovarian
[7] = system: HS 578T breast
[8] = system: DU-145 prostate
[9] = system: K-562 leukemia
[10] = system: UACC-62 melanoma

## COC(=O)CCN(CCC(=O)OC)C1CC1
[1]
  TGI: > 100 µM
[2]
  TGI: > 100 µM
[3]
  TGI: > 100 µM
[4]
  TGI: > 100 µM
[5]
  TGI: > 100 µM
[6]
  TGI: > 100 µM
[7]
  TGI: > 100 µM
[8]
  TGI: > 100 µM
[9]
  TGI: > 100 µM
[10]
  TGI: > 100 µM

## O=C1C(N=Nc2ccc(-c3nc4ccccc4[nH]3)cc2)NC(=S)N1c1ccccc1 (configuration not stated)
[1]
  TGI: 48.8 µM
[2]
  TGI: > 100 µM
[3]
  TGI: > 100 µM
[4]
  TGI: 15.3 µM
[5]
  TGI: > 100 µM
[6]
  TGI: > 100 µM
[7]
  TGI: > 100 µM
[8]
  TGI: > 100 µM
[9]
  TGI: 35.8 µM
[10]
  TGI: > 100 µM

## NCCCCNC1(c2cc3ccccc3s2)CCCCC1
[1]
  TGI: 8.37 µM
[2]
  TGI: 20.5 µM
[3]
  TGI: 20.9 µM
[4]
  TGI: 3.58 µM
[5]
  TGI: 29.1 µM
[6]
  TGI: 21.2 µM
[7]
  TGI: 20.4 µM
[8]
  TGI: 23.5 µM
[9]
  TGI: 3.56 µM
[10]
  TGI: 3.79 µM

## NC(=O)NCCCC(NC(=O)OCCCCCn1ccc(=O)[nH]c1=O)C(=O)O (configuration not stated)
[1]
  TGI: > 100 µM
[2]
  TGI: > 100 µM
[3]
  TGI: > 100 µM
[4]
  TGI: > 100 µM
[5]
  TGI: > 100 µM
[6]
  TGI: > 100 µM
[7]
  TGI: > 100 µM
[8]
  TGI: > 100 µM
[9]
  TGI: > 100 µM
[10]
  TGI: > 100 µM

## NC(=O)CS(=O)CC(N)C(=O)O (configuration not stated)
[1]
  TGI: > 100 µM
[2]
  TGI: > 100 µM
[3]
  TGI: > 100 µM
[4]
  TGI: > 100 µM
[5]
  TGI: > 100 µM
[6]
  TGI: > 100 µM
[7]
  TGI: > 100 µM
[8]
  TGI: > 100 µM
[9]
  TGI: > 100 µM
[10]
  TGI: > 100 µM

## CCOc1cc(C2SCC(=O)N2c2nc3cc4sc(N5C(=O)CSC5c5ccc(O)c(OCC)c5)nc4cc3s2)ccc1O (configuration not stated)
[1]
  TGI: > 100 µM
[2]
  TGI: > 100 µM
[3]
  TGI: > 100 µM
[4]
  TGI: > 100 µM
[5]
  TGI: > 100 µM
[6]
  TGI: > 100 µM
[7]
  TGI: > 100 µM
[8]
  TGI: > 100 µM
[9]
  TGI: > 100 µM
[10]
  TGI: > 100 µM

## CCOC(=O)C(C)c1nc2cc(N3CCN(C)CC3)c(F)cc2[nH]c1=O (configuration not stated)
[1]
  TGI: > 100 µM
[2]
  TGI: > 100 µM
[3]
  TGI: > 100 µM
[4]
  TGI: > 100 µM
[5]
  TGI: > 100 µM
[6]
  TGI: > 100 µM
[7]
  TGI: > 100 µM
[8]
  TGI: > 100 µM
[9]
  TGI: > 100 µM
[10]
  TGI: > 100 µM

## Nc1c(S(=O)(=O)O)cc(Nc2cccc(S(=O)(=O)/C=C/S(=O)(=O)O)c2)c2c1C(=O)c1ccccc1C2=O
[1]
  TGI: > 100 µM
[2]
  TGI: > 100 µM
[3]
  TGI: > 100 µM
[4]
  TGI: > 100 µM
[5]
  TGI: > 100 µM
[6]
  TGI: > 100 µM
[7]
  TGI: > 100 µM
[8]
  TGI: > 100 µM
[9]
  TGI: > 100 µM
[10]
  TGI: > 100 µM

## CC(C)C1=CC23CCC4C(C)(C(=O)O)CCCC4(C)C2CC1C(C(=O)O)C3C(=O)O (configuration not stated)
[1]
  TGI: > 100 µM
[2]
  TGI: > 100 µM
[3]
  TGI: > 100 µM
[4]
  TGI: > 100 µM
[5]
  TGI: > 100 µM
[6]
  TGI: > 100 µM
[7]
  TGI: > 100 µM
[8]
  TGI: > 100 µM
[9]
  TGI: > 100 µM
[10]
  TGI: > 100 µM

## Cc1cccc2c1C/C(=C\c1cccc(C)c1C(=O)O)C2=O
[1]
  TGI: > 100 µM
[2]
  TGI: > 100 µM
[3]
  TGI: > 100 µM
[4]
  TGI: > 100 µM
[5]
  TGI: > 100 µM
[6]
  TGI: > 100 µM
[7]
  TGI: > 100 µM
[8]
  TGI: > 100 µM
[9]
  TGI: > 100 µM
[10]
  TGI: > 100 µM

## CN(C)CCOC1(CC2CCCCC2)CCC(C(C)(C)C)CC1 (configuration not stated)
[1]
  TGI: 7.67 µM
[2]
  TGI: 17.6 µM
[3]
  TGI: 19.3 µM
[4]
  TGI: 4.57 µM
[5]
  TGI: 22 µM
[6]
  TGI: 23.8 µM
[7]
  TGI: 23.4 µM
[8]
  TGI: 19.6 µM
[9]
  TGI: 5.93 µM
[10]
  TGI: 20.3 µM

## CCC(C)C1(O)OC2CC3(C)OC(=CC3=O)/C(C)=C\C3OC(=O)C1(C)C32 (configuration not stated)
[1]
  TGI: > 100 µM
[2]
  TGI: > 100 µM
[3]
  TGI: 59.9 µM
[4]
  TGI: 73.5 µM
[5]
  TGI: 32.2 µM
[6]
  TGI: > 100 µM
[7]
  TGI: > 100 µM
[8]
  TGI: 17 µM
[9]
  TGI: > 100 µM
[10]
  TGI: 35.3 µM

## COc1ccc(C2c3cc4c(cc3OC(N3CCCCC3)C2C)OCO4)cc1 (configuration not stated)
[1]
  TGI: > 100 µM
[2]
  TGI: > 100 µM
[3]
  TGI: > 100 µM
[4]
  TGI: > 100 µM
[5]
  TGI: > 100 µM
[6]
  TGI: > 100 µM
[7]
  TGI: 87.8 µM
[8]
  TGI: > 100 µM
[9]
  TGI: > 100 µM
[10]
  TGI: > 100 µM

## Cc1ccc2nc(Cl)c(/C=N/N3C(=O)/C(=C/c4ccc(N(C)C)cc4)N=C3c3ccccc3)cc2c1
[1]
  TGI: 68.5 µM
[2]
  TGI: > 100 µM
[3]
  TGI: > 100 µM
[4]
  TGI: > 100 µM
[5]
  TGI: > 100 µM
[6]
  TGI: > 100 µM
[7]
  TGI: > 100 µM
[8]
  TGI: > 100 µM
[9]
  TGI: > 100 µM
[10]
  TGI: > 100 µM

## O=C(c1ccccc1)N1C(=S)N(c2ccc([N+](=O)[O-])cc2)C(=Nc2ccccc2)C1=Nc1ccccc1
[1]
  TGI: > 100 µM
[2]
  TGI: > 100 µM
[3]
  TGI: > 100 µM
[4]
  TGI: > 100 µM
[5]
  TGI: > 100 µM
[6]
  TGI: > 100 µM
[7]
  TGI: > 100 µM
[8]
  TGI: > 100 µM
[9]
  TGI: > 100 µM
[10]
  TGI: > 100 µM

## O=C1/C(=C/c2ccco2)NC(=S)N1CN1CCOCC1
[1]
  TGI: > 100 µM
[2]
  TGI: > 100 µM
[3]
  TGI: > 100 µM
[4]
  TGI: > 100 µM
[5]
  TGI: > 100 µM
[6]
  TGI: > 100 µM
[7]
  TGI: > 100 µM
[8]
  TGI: > 100 µM
[9]
  TGI: > 100 µM
[10]
  TGI: > 100 µM

## CC(C)(C)c1cc(C2COC(=O)COCC(=O)OCCOCCOCCO2)cc(C(C)(C)C)c1O (configuration not stated)
[1]
  TGI: > 100 µM
[2]
  TGI: > 31.6 µM
[3]
  TGI: > 100 µM
[4]
  TGI: > 100 µM
[5]
  TGI: > 100 µM
[6]
  TGI: > 100 µM
[7]
  TGI: 45.8 µM
[8]
  TGI: 41.7 µM
[9]
  TGI: > 100 µM
[10]
  TGI: > 69.1 µM

## O=C1O[C@]2(c3ccccc3)C(c3ccccc3)=C[C@]2(C(=O)c2ccccc2)C1=O
[1]
  TGI: 22.3 µM
[2]
  TGI: > 100 µM
[3]
  TGI: > 100 µM
[4]
  TGI: 30.7 µM
[5]
  TGI: > 100 µM
[6]
  TGI: > 100 µM
[7]
  TGI: > 100 µM
[8]
  TGI: > 100 µM
[9]
  TGI: 54.3 µM
[10]
  TGI: > 100 µM

## CC1(C)[C@@H]2C[C@H]1C(Cc1cccc(C[C@H]3c4cc(-c5ccccn5)ncc4[C@H]4C[C@@H]3C4(C)C)c1)c1cc(-c3ccccn3)ncc12 (some centres not stated)
[1]
  TGI: 1.91 µM
[2]
  TGI: > 100 µM
[3]
  TGI: > 44.2 µM
[4]
  GI50: 0.439 µM
  TGI: 2.63 µM
[5]
  TGI: > 46.8 µM
[6]
  TGI: > 57.6 µM
[7]
  TGI: > 100 µM
[8]
  TGI: > 100 µM
[9]
  TGI: > 100 µM
[10]
  TGI: > 21 µM

## CCOC(=O)C(NCc1cccc(C(F)(F)F)c1)(NC(=O)c1ccccc1)C(F)(F)F (configuration not stated)
[1]
  TGI: > 100 µM
[2]
  TGI: > 100 µM
[3]
  TGI: > 100 µM
[4]
  TGI: > 100 µM
[5]
  TGI: 83.9 µM
[6]
  TGI: 84.5 µM
[7]
  TGI: > 100 µM
[8]
  TGI: > 100 µM
[9]
  TGI: > 100 µM
[10]
  TGI: 30.9 µM

## CCOC(=O)N(C)C1(c2ccccc2)CCN(CCCC(=O)c2ccc(F)cc2)CC1
[1]
  TGI: > 100 µM
[2]
  TGI: > 100 µM
[3]
  TGI: > 100 µM
[4]
  TGI: 45.8 µM
[5]
  TGI: > 100 µM
[6]
  TGI: > 100 µM
[7]
  TGI: > 100 µM
[8]
  TGI: > 100 µM
[9]
  TGI: 72.7 µM
[10]
  TGI: > 100 µM

## O=C(Nc1cccc(-n2ccc3c(NC(=O)c4ccccc4)nccc32)c1)c1cc(N2CCOCC2)cc(C(F)(F)F)c1
[1]
  GI50: 0.907 µM
  TGI: > 100 µM
[2]
  GI50: 0.142 µM
[3]
  GI50: 0.286 µM
  TGI: > 100 µM
[4]
  GI50: 0.0583 µM
[5]
  GI50: 0.802 µM
  TGI: > 100 µM
[6]
  GI50: 0.09 µM
  TGI: > 100 µM
[7]
  GI50: 0.0621 µM
  TGI: 32.6 µM
[8]
  GI50: 0.164 µM
[9]
  GI50: 0.0506 µM
  TGI: > 100 µM
[10]
  GI50: 0.0511 µM
  TGI: > 44.2 µM

## Nc1ccc(-n2c(=O)oc3ccc(Cl)cc3c2=O)c(Cl)c1
[1]
  GI50: 0.368 µM
  TGI: 2.32 µM
[2]
  GI50: 0.234 µM
  TGI: > 38.7 µM
[3]
  GI50: 0.147 µM
  TGI: 5.53 µM
[4]
  GI50: 0.0987 µM
[5]
  GI50: 0.213 µM
  TGI: > 56.3 µM
[6]
  GI50: 0.172 µM
  TGI: 1.03 µM
[7]
  GI50: 0.081 µM
  TGI: 0.562 µM
[8]
  GI50: 0.202 µM
  TGI: 14 µM
[9]
  GI50: 0.108 µM
  TGI: > 100 µM
[10]
  GI50: 0.0527 µM
  TGI: 0.22 µM

## CCOC(=O)C(=Cn1c(=S)[nH]c2ccc([N+](=O)[O-])cc21)C(=O)OCC
[1]
  TGI: > 100 µM
[2]
  TGI: > 100 µM
[3]
  TGI: > 100 µM
[4]
  TGI: > 100 µM
[5]
  TGI: > 100 µM
[6]
  TGI: > 100 µM
[7]
  TGI: > 100 µM
[8]
  TGI: > 100 µM
[9]
  TGI: > 100 µM
[10]
  TGI: > 100 µM
